Data: patent US9771378B2 (Denali Therapeutics, Inc., priority 2014, dated 2017)

Tested on: Aβ42 (human neuroglioma H4 cells expressing human wild type APP751)
Assay: In vitro cell screening assay with sandwich ELISA quantification of Aβ42 peptide
Type: cell-based
Conditions: H4 cells stably expressing human wild type APP751; Pro293 chemically defined medium; compounds 0.003-10 μM; incubated overnight (16-18 h); supernatant Aβ42 by sandwich ELISA; normalized to DMSO and DAPT; read-out: Aβ42 H4 Prot Fre IC50
Protocol: Human neuroglioma H4 cells were transfected with a pcDNA3.1 plasmid expressing human wild type APP751 cDNA and a stable cell line was generated using G418 selection. Cells are plated at 15,000 cells/well in Costar 96-well plates and placed at 37° C. and 5% CO2. Six hours after plating, cells are washed three times with Pro293™ chemically defined medium, followed by addition of compounds (0.003-10 μM, final DMSO concentration of 0.33%). Plates were incubated overnight (16-18 h) and supernatant was removed for quantification of AP peptides by sandwich ELISA. Cytotoxicity was evaluated using Cell-Titer 96W AQueous One Solution Cell Proliferation Assay according to the manufacturer's protocol.
ELISA Measurements of Aβ Peptides
Aβ peptide levels were quantified by sandwich ELISA. 96-well plates are coated with C-terminal specific Aβ antibodies recognizing either Aβ37, Aβ38, Aβ40, Aβ42, Aβ43 or a N-terminal specific Aβ antibody to detect Aβ 1-x. Plates are then blocked overnight at 4° C. with 1% bovine serum albumin (BSA) in PBS-T. Plates are washed and 100 μl of cultured cell supernatant or synthetic Aβ peptide standards and a detection antibody (4G8-HRP) are applied to the blocked plate and incubated overnight at 4° C. The next day, wells are washed before the addition […] of detection substrate (TMB peroxidase). Plates are then read for absorbance at 450 nm on a Molecular Devices SpectraMax M5e Microplate Reader.
IC50 values were calculated from values reported as percent of DMSO controls using nonlinear regression, based on a sigmoidal dose-response (variable slope) model. GraphPAD software from Prism used for calculation.

Which IC50 does the source give for `Cc1cn(-c2ccc(Nc3ncc4c(n3)N(C)C(c3cc(F)cc(F)c3)CO4)cc2)cn1` (racemic) [Example 23] here?
The IC50 was 0.0379 µM.

With `Cc1cc(-c2ccc(Nc3ncc4c(n3)N(C)C(c3ccccc3)CO4)cc2)ccn1` (racemic) [Example 24] as the compound, how does the IC50 read?
Its IC50 is 0.155 µM.

How did the IC50 turn out when `Cc1cn(-c2ccc(Nc3ncc4c(n3)N(C)C(c3ccccc3)CO4)cc2F)cn1` (racemic) [Example 25] was run?
Its IC50 is 0.101 µM.

How did the IC50 turn out when `Cc1cn(-c2ccc(Nc3ncc4c(n3)N(C)C(c3ccccc3)CO4)cc2)cn1` (racemic) [Example 26] was run?
Its IC50 is 0.121 µM.

Which IC50 does the source give for `Cc1cc(-c2ccc(Nc3ncc4c(n3)N(C)C(c3ccccc3)CO4)cc2F)ccn1` (racemic) [Example 27] here?
The IC50 was 0.374 µM.

For `Cc1cc(-c2ccc(Nc3ncc4c(n3)N(C)C(c3cc(F)cc(F)c3)CO4)cc2)ccn1` (racemic) [Example 28], which IC50 is on record?
The IC50 was 0.09 µM.

Which IC50 does the source give for `Cc1cc(-c2ccc(Nc3ncc4c(n3)N(C)C(c3ccccc3C)CO4)cc2)ccn1` (racemic) [Example 29] here?
Its IC50 is 0.297 µM.

Which IC50 does the source give for `COc1cc(Nc2ncc3c(n2)N(C)C(c2cc(F)cc(F)c2)CO3)ccc1-n1cnc(C)c1` (racemic) [Example 30] here?
The IC50 was 0.018 µM.

With `COc1cc(Nc2ncc3c(n2)N(C)C(c2ccccc2C)CO3)ccc1-n1cnc(C)c1` (racemic) [Example 31] as the compound, how does the IC50 read?
Its IC50 is 0.025 µM.

Which IC50 does the source give for `Cc1cc(-c2ccc(Nc3ncc4c(n3)N(C)C(c3ccccc3C)CO4)cc2F)ccn1` (racemic) [Example 32] here?
The IC50 was 0.168 µM.

Which IC50 does the source give for `Cc1cn(-c2ccc(Nc3ncc4c(n3)N(C)C(c3cc(F)cc(F)c3)CO4)cc2F)cn1` (racemic) [Example 33] here?
Its IC50 is 0.038 µM.

`Cc1cn(-c2ccc(Nc3ncc4c(n3)N(C)C(c3ccccc3C)CO4)cc2F)cn1` (racemic) [Example 34] was tested. Which IC50 did it give?
The IC50 was 0.044 µM.

With `COc1cc(Nc2ncc3c(n2)N(C)C(c2ccccc2C)CO3)ccc1-c1ccnc(C)c1` (racemic) [Example 35] as the compound, how does the IC50 read?
Its IC50 is 0.087 µM.

How did the IC50 turn out when `Cc1cc(-c2ccc(Nc3ncc4c(n3)N(C)C(c3cc(F)c(F)c(F)c3)CO4)cc2F)ccn1` (racemic) [Example 36] was run?
The IC50 was 0.162 µM.

`Cc1cc(-c2ccc(Nc3ncc4c(n3)N(C)C(c3cc(F)c(F)c(F)c3)CO4)cc2)ccn1` (racemic) [Example 37] was tested. Which IC50 did it give?
The IC50 was 0.103 µM.

For `Cc1cn(-c2ccc(Nc3ncc4c(n3)N(C)C(c3cc(F)c(F)c(F)c3)CO4)cc2F)cn1` (racemic) [Example 38], which IC50 is on record?
Its IC50 is 0.032 µM.

How did the IC50 turn out when `COc1cc(Nc2ncc3c(n2)N(C)C(c2cc(F)c(F)c(F)c2)CO3)ccc1-c1ccnc(C)c1` (racemic) [Example 39] was run?
The IC50 was 0.035 µM.

Which IC50 does the source give for `COc1cc(Nc2ncc3c(n2)N(C)C(c2cc(F)c(F)c(F)c2)CO3)ccc1-n1cnc(C)c1` (racemic) [Example 40] here?
Its IC50 is 0.02 µM.

With `Cc1cc(-c2ccc(Nc3ncc4c(n3)N(C)C(c3cc(F)cc(F)c3)CO4)cc2F)ccn1` (racemic) [Example 41] as the compound, how does the IC50 read?
The IC50 was 0.063 µM.

How did the IC50 turn out when `COc1cc(Nc2ncc3c(n2)N(C)C(c2cc(F)cc(F)c2)CO3)ccc1-c1ccnc(C)c1` (racemic) [Example 42] was run?
Its IC50 is 0.047 µM.

Which IC50 does the source give for `Cc1cn(-c2ccc(Nc3ncc4c(n3)N(C)C(c3ccccc3C)CO4)cc2)cn1` (racemic) [Example 43] here?
Its IC50 is 0.216 µM.

`Cc1cn(-c2ccc(Nc3ncc4c(n3)N(C)C(c3cc(F)c(F)c(F)c3)CO4)cc2)cn1` (racemic) [Example 44] was tested. Which IC50 did it give?
Its IC50 is 0.075 µM.

`COc1cc(Nc2ncc3c(n2)N(C)C(c2ccccc2)CO3)ccc1-n1cnc(C)c1` (racemic) [Example 45, N-(3-methoxy-4-(4-methyl-1H-imidazol-1-yl)phenyl)-8-methyl-7-phenyl-7,8-dihydro-6H-pyrimido[5,4-b][1,4]oxazin-2-amine] was tested. Which IC50 did it give?
The IC50 was 0.058 µM.

For `COc1cc(Nc2ncc3c(n2)N(C)C(c2ccccc2)CO3)ccc1-c1ccnc(C)c1` (racemic) [Example 46, N-(3-methoxy-4-(2-methylpyridin-4-yl)phenyl)-8-methyl-7-phenyl-7,8-dihydro-6H-pyrimido[5,4-b][1,4]oxazin-2-amine], which IC50 is on record?
The IC50 was 0.048 µM.

`COc1cc(Nc2ncc3c(n2)N(C)C(Cc2ccccc2)CO3)ccc1-n1cnc(C)c1` (racemic) [Example 47] was tested. Which IC50 did it give?
The IC50 was 0.041 µM.

How did the IC50 turn out when `COc1cc(Nc2ncc3c(n2)N(C)C(c2ccc(F)cc2F)CO3)ccc1-n1cnc(C)c1` (racemic) [Example 48] was run?
Its IC50 is 0.036 µM.

With `COc1cc(Nc2ncc3c(n2)N(C)C(c2ccc(F)cc2)CO3)ccc1-n1cnc(C)c1` (racemic) [Example 49] as the compound, how does the IC50 read?
The IC50 was 0.036 µM.

`COc1cc(Nc2ncc3c(n2)N(C)C(C2CCOCC2)CO3)ccc1-n1cnc(C)c1` (racemic) [Example 50] was tested. Which IC50 did it give?
The IC50 was 0.173 µM.

For `COc1cc(Nc2ncc3c(n2)N(C)C(c2ccccc2Cl)CO3)ccc1-n1cnc(C)c1` (racemic) [Example 51], which IC50 is on record?
The IC50 was 0.032 µM.

`COc1cc(Nc2ncc3c(n2)N(C)C(C)CO3)ccc1-n1cnc(C)c1` (racemic) [Example 52] was tested. Which IC50 did it give?
Its IC50 is 0.205 µM.

`COc1cc(Nc2ncc3c(n2)N(C)C(c2ccc(F)cc2Cl)CO3)ccc1-n1cnc(C)c1` (racemic) [Example 53] was tested. Which IC50 did it give?
The IC50 was 0.037 µM.

`COc1cc(Nc2ncc3c(n2)N(C)C(c2ccc(F)cc2C)CO3)ccc1-n1cnc(C)c1` (racemic) [Example 54] was tested. Which IC50 did it give?
Its IC50 is 0.075 µM.

For `COc1cc(Nc2ncc3c(n2)N(C)C(c2ccccc2C(F)(F)F)CO3)ccc1-n1cnc(C)c1` (racemic) [Example 55], which IC50 is on record?
The IC50 was 0.037 µM.

With `COc1ccc(C2COc3cnc(Nc4ccc(-n5cnc(C)c5)c(OC)c4)nc3N2C)c(Cl)c1` (racemic) [Example 86] as the compound, how does the IC50 read?
The IC50 was 0.038 µM.

With `COc1ccc(Cl)c(C2COc3cnc(Nc4ccc(-n5cnc(C)c5)c(OC)c4)nc3N2C)c1` (racemic) [Example 87] as the compound, how does the IC50 read?
The IC50 was 0.042 µM.

`COc1cc(Nc2ncc3c(n2)N(C)C(c2cc(C(F)(F)F)ccc2Cl)CO3)ccc1-n1cnc(C)c1` (racemic) [Example 88] was tested. Which IC50 did it give?
The IC50 was 0.039 µM.

With `COc1cc(Cl)c(C2COc3cnc(Nc4ccc(-n5cnc(C)c5)c(OC)c4)nc3N2C)cc1Cl` (racemic) [Example 89] as the compound, how does the IC50 read?
Its IC50 is 0.023 µM.

Which IC50 does the source give for `COc1ccc(C)c(C2COc3cnc(Nc4ccc(-n5cnc(C)c5)c(OC)c4)nc3N2C)c1` (racemic) [Example 90] here?
Its IC50 is 0.027 µM.

`COc1cc(Nc2ncc3c(n2)N(C)C(c2ccc(C(F)(F)F)cc2C(F)(F)F)CO3)ccc1-n1cnc(C)c1` (racemic) [Example 91] was tested. Which IC50 did it give?
Its IC50 is 0.11 µM.

Which IC50 does the source give for `COc1ccc(C2COc3cnc(Nc4ccc(-n5cnc(C)c5)c(OC)c4)nc3N2C)c(C)c1` (racemic) [Example 92] here?
Its IC50 is 0.027 µM.

How did the IC50 turn out when `COc1nc(Nc2ncc3c(n2)N(C)C(C)CO3)ccc1-n1cnc(C)c1` (racemic) [Example 190] was run?
The IC50 was > 3 µM.

With `COc1nc(Nc2ncc3c(n2)N(C)C(c2cc(F)c(F)cc2F)CO3)ccc1-n1cnc(C)c1` (racemic) [Example 191] as the compound, how does the IC50 read?
Its IC50 is 2.25 µM.

Which IC50 does the source give for `COc1nc(Nc2ncc3c(n2)N(C)C(C)CO3)ccc1-c1cnn(C)c1` (racemic) [Example 195] here?
Its IC50 is > 3 µM.

How did the IC50 turn out when `COc1nc(Nc2ncc3c(n2)N(C)C(c2cc(F)c(F)c(F)c2)CO3)c(F)cc1-c1cnn(C)c1` (racemic) [Example 196] was run?
The IC50 was 0.544 µM.

For `COc1nc(Nc2ncc3c(n2)N(C)C(c2cc(F)cc(F)c2)CO3)c(F)cc1-c1cnn(C)c1` (racemic) [Example 197], which IC50 is on record?
Its IC50 is > 3 µM.

`COc1cc(Nc2ncc3c(n2)N(C)C(C)CO3)ncc1-n1cnc(C)c1` (racemic) [Example 234] was tested. Which IC50 did it give?
Its IC50 is 1.77 µM.

`Cc1cn(-c2ccc(Nc3ncc4c(n3)N(C)C(c3cc(F)c(F)cc3C(F)(F)F)CO4)cc2F)cn1` (single isomer, unassigned) [Example 198A] was tested. Which IC50 did it give?
The IC50 was 1.11 µM.

How did the IC50 turn out when `Cc1cn(-c2ccc(Nc3ncc4c(n3)N(C)C(c3cc(F)c(F)cc3C(F)(F)F)CO4)cc2F)cn1` (single isomer, unassigned) [Example 198B] was run?
The IC50 was 0.101 µM.

For `Cc1cn(-c2ccc(Nc3ncc4c(n3)N(C)C(c3cc(F)cc(F)c3)CO4)cc2)cn1` (single isomer, unassigned; (+)) [Example 23B], which IC50 is on record?
Its IC50 is 0.032 µM.

For `Cc1cc(-c2ccc(Nc3ncc4c(n3)N(C)C(c3ccccc3)CO4)cc2)ccn1` (single isomer, unassigned; (+)) [Example 24A], which IC50 is on record?
Its IC50 is 0.068 µM.

Which IC50 does the source give for `Cc1cn(-c2ccc(Nc3ncc4c(n3)N(C)C(c3ccccc3)CO4)cc2F)cn1` (single isomer, unassigned; (+)) [Example 25A] here?
Its IC50 is 0.014 µM.

Which IC50 does the source give for `Cc1cn(-c2ccc(Nc3ncc4c(n3)N(C)C(c3ccccc3)CO4)cc2)cn1` (single isomer, unassigned; (+)) [Example 26A] here?
Its IC50 is 0.055 µM.

How did the IC50 turn out when `Cc1cc(-c2ccc(Nc3ncc4c(n3)N(C)C(c3ccccc3)CO4)cc2F)ccn1` (single isomer, unassigned; (+)) [Example 27A] was run?
The IC50 was 0.306 µM.

With `Cc1cc(-c2ccc(Nc3ncc4c(n3)N(C)C(c3cc(F)cc(F)c3)CO4)cc2)ccn1` (single isomer, unassigned; (+)) [Example 28B] as the compound, how does the IC50 read?
Its IC50 is 0.06 µM.

With `Cc1cc(-c2ccc(Nc3ncc4c(n3)N(C)C(c3ccccc3C)CO4)cc2)ccn1` (single isomer, unassigned; (+)) [Example 29B] as the compound, how does the IC50 read?
The IC50 was 0.068 µM.

`COc1cc(Nc2ncc3c(n2)N(C)C(c2cc(F)cc(F)c2)CO3)ccc1-n1cnc(C)c1` (single isomer, unassigned; (+)) [Example 30B] was tested. Which IC50 did it give?
Its IC50 is 0.023 µM.

Which IC50 does the source give for `COc1cc(Nc2ncc3c(n2)N(C)C(c2ccccc2C)CO3)ccc1-n1cnc(C)c1` (single isomer, unassigned; (+)) [Example 31B] here?
Its IC50 is 0.0296 µM.
